Some results are limits rather than exact numbers.

Holding throughout (type): cell-based
The target in one assay is T1, human A2A receptors (Homo sapiens, UniProt P29274).
T1 construct: expressed in transfected cells; host or cells: HEK293
In words: Inhibition of human A2A receptor in recombinant HEK293 cells, cAMP quantification (HTRF). The note with it: read-out: A2A (Category). An outline of the steps: (§1)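 Adenosine receptor activity tracked via second-messenger cAMP; incubation 15 min, then HTRF detection of cellular cAMP.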

The next assay concerns Human T cell. In words: Human T cell IL-2. The note with it: human T cells.
The next assay deals with T2, human A2B receptors (Homo sapiens, UniProt P29275).
T2 construct: expressed in transfected cells; host or cells: HEK293
T2 sequence (P29275 1-332): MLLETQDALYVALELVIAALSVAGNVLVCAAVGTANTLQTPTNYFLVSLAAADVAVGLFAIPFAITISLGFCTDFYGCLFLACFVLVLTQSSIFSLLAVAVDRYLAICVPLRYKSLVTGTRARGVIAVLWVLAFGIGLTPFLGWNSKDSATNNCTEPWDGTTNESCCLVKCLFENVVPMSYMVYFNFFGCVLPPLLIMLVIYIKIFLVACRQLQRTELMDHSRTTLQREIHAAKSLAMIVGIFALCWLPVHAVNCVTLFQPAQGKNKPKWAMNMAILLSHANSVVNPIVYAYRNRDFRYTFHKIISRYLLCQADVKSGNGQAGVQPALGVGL
The experiment in a line: Inhibition of human A2B receptor in recombinant HEK293 cells, cAMP quantification (HTRF). The settings on record: read-out: A2B (Category). The method, boiled down: as §1

Assay [1] addresses T3, endogenous human A2A receptor (Homo sapiens, UniProt P29274).
T3 construct: The endogenous functional activity of the Gs-coupled human A2A receptor was measured in T cells; endogenous in cells; host or cells: human pan T cells isolated from PBMC of fresh whole blood
The experiment in a line: Human T cell assay, endogenous A2A receptor, cAMP quantification. Here is the method:
The endogenous functional activity of the Gs-coupled human A2A receptor was measured in T cells, where this receptor is highly expressed. Determination of receptor activity was done by quantification of cAMP, which is a second messenger for adenosine receptors.
In short, human pan T cells were isolated from human PBMC (MACS Pan T Cell Isolation Kit, Miltenyi Biotec) that have been derived from fresh whole blood. The T cells were seeded in 384-well microtiter plates and treated with test compounds. […] Finally, HTRF reagents (cAMP Femto Kit, CisBio) were added to the wells, and after 1 h cellular cAMP levels were determined using the ENVISION (Perkin Elmer) plate reader.
The obtained raw data were normalized against the inhibitor control and the neutral control (DMSO) and the normalized data were fitted using Genedata Screener software.

The subject of a further assay is mouse Pan T cells. The experiment in a line: Mouse T cell IL-2 rescue from NECA inhibition (ELISA). The note with it: 24 h. The text has this: Adenosine (Ado) in tumor microenvironment can inhibit T cell activity by signaling through A2A receptors and suppress cytokine secretion by T cells. […] Potential A2A antagonists or A2A/A2B dual antagonists can rescue T cells from this inhibition. Herein, we describe the in vitro system we established using Pan T cells from mouse spleens to screen potential A2A antagonists or A2A/A2B dual antagonists for their activity. The method described involves the use of CD3/CD28 pre-coated beads to stimulate Pan T cells purified from mouse splenocytes, combined with the addition of A2A agonist along with potential A2A or A2A/A2B dual antagonists to evaluate potentiation of T cell cytokine production.
Briefly, mouse Pan T cells are purified from spleens of BALB/c mice using Pan T cell isolation kit Mouse II (MACS Miltenyi biotech Cat # Order no. 130-095-130) according to manufacturer's protocol. […] After 24 h incubation IL-2 levels in the supernatants are measured by ELISAs according to manufacturer's protocol (R&D systems Cat # DY402 (IL-2)). Once the concentrations are calculated, the difference of cytokine concentration of DMSO control and agonist alone control is calculated and the percentage of rescue by each concentration of antagonist is calculated by using Microsoft Excel. […]

T1 sequence (P29274 whole entry): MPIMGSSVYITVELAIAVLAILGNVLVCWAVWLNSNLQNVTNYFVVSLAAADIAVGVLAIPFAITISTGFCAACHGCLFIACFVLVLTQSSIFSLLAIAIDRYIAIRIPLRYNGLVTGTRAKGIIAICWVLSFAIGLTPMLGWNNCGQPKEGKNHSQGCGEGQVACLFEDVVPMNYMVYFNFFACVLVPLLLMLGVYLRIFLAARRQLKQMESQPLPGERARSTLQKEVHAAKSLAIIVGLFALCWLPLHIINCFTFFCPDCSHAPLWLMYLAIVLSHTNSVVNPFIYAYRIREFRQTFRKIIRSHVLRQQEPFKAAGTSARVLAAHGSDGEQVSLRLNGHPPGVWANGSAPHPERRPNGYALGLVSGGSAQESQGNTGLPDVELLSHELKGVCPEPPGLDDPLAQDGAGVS
T3 sequence (P29274 whole entry): as above

Consider `O=C(c1cc2c(cn1)c(Nc1ccc(F)cc1)nn2CC(F)(F)F)N1CCCOCC1` [Compound 10, [3-(4-fluoroanilino)-1-(2,2,2-trifluoroethyl)pyrazolo[4,3-c]pyridin-6-yl]-(1,4-oxazepan-4-yl)methanone], for which the IC50 is less than 100 nM at human A2A receptors; less than 100 nM with Human T cell; less than 100 nM on human A2B receptors; less than 100 nM in assay [1]; less than 1000 nM in the assay with mouse Pan T cells.
For `O=C(c1cc2c(cn1)c(Nc1cnccn1)nn2CC(F)(F)F)N1CCC(F)CC1` [Compound 124, [3-(pyrazin-2ylamino)-1-(2,2,2-trifluoro-ethyl)-1H-pyrazolo[4,3-c]pyridin-6-yl]-(4-fluoro-piperidin-1-yl)-methanone], the IC50 at human A2A receptors was less than 100 nM; at human A2B receptors, less than 1000 nM.
With `CC(C)(O)C[C@H]1CCCN1C(=O)c1cc2c(cn1)c(Nc1ccc(F)cn1)nn2CC(F)(F)F` [Compound 125, [3-[(5-fluoro-2-pyridyl)amino]-1-(2,2,2-trifluoroethyl)pyrazolo[4,3-c]pyridin-6-yl]-[(2R)-2-(2-hydroxy-2-methyl-propyl)pyrrolidin-1-yl]methanone], the results for the IC50 on human A2A receptors and at human A2B receptors were less than 100 nM and less than 1000 nM, respectively.
As for `O=C(c1cc2c(cn1)c(Nc1ccccn1)nn2CC(F)(F)F)N1[C@@H]2CC[C@H]1C[C@@H](O)C2` [Compound 127, (3-endo-hydroxy-8-azabicyclo[3.2.1]octan-8-yl)-[3-(2-pyridylamino)-1-(2,2,2-trifluoroethyl)pyrazolo[4,3-c]pyridin-6-yl]methanone], the IC50 at human A2A receptors and on human A2B receptors was less than 100 nM throughout.

The values are drawn from patent US12194051B2, “5-azaindazole derivatives as adenosine receptor antagonists” (MERCK PATENT GMBH, priority 2018, dated 2025).
